Reference: patent publication US7153964B2, “Pyrimidine compounds” (AstraZeneca AB, priority 2000, dated 2006)
pIC50: −log10 of the molar value.

Target: T1, CDK2 (Homo sapiens, UniProt P24941)
T1 construct: made in house; host or cells: Sf21 insect cells (stated for the CDK2/Cyclin E option; by analogy to CDK4/Cyclin D1 baculovirus co-infection)
Test: CDK2 inhibition assay (in vitro kinase SPA, by analogy to the CDK4 assay)
Assay type: biochemical
Settings: read-out: CDK2 inhibitory activity IC50
Experimental: The compounds were tested in an in vitro kinase assay in 96 well format using Scintillation Proximity Assay (SPA—obtained from Amersham) for measuring incorporation of [γ-33-P]-Adenosine Triphosphate into a test substrate (GST-Retinoblastoma). In each well was placed the compound to be tested (diluted in DMSO and water to correct concentrations) and in control wells either p16 as an inhibitor control or DMSO as a positive control.
Approximately 0.5 μl of CDK4/Cyclin D1 partially-purified enzyme (amount dependent on enzyme activity) diluted in 25 μl incubation buffer was added to each well then 20 μl of GST-Rb/ATP/ATP33 mixture (containing 0.5 μg GST-Rb and 0.2 μM ATP and 0.14 μCi [γ-33-P]-Adenosine Triphosphate), and the resulting mixture shaken gently, then incubated at room temperature for 60 minutes.
To each well was then added 150 μL stop solution containing (0.8 mg/well of Protein A-PVT SPA bead (Amersham)), 20 pM/well of Anti-Glutathione Transferase, Rabbit IgG (obtained from Molecular Probes), 61 mM EDTA and 50 mM HEPES pH 7.5 containing 0.05% sodium azide.
The plates were sealed with Topseal-S plate sealers, left for two hours then spun at 2500 rpm, 1124×g., for 5 minutes. The plates were read on a Topcount for 30 seconds per well. […]

Structure (SMILES): N#Cc1ccccc1Nc1nc(Nc2ccc(S(N)(=O)=O)cc2)ncc1Cl [Example 23, 2-(4-Sulphamoylanilino)-4-(2-cyanoanilino)-5-chloropyrimidine]
- pIC50: 6.46
